In PMC10254030, “Photoactivatable Heptamethine-Based Carbonic Anhydrase Inhibitors Leading to New Anti-Antibacterial Agents” (International Journal of Molecular Sciences, 2023):
Read-outs that look alike come from different tables or passages of the source.

Legend:
[1] = target: T1, hCA I (Homo sapiens, UniProt P00915); assay: stopped-flow CO2 hydrase assay, hCA I; assay type: biochemical; settings: for Ki: stopped-flow CO2 hydrase assay, pH 7.4, mean from 3 assays; for selectivity for all assayed bacterial isoforms: bacterial CA isoforms versus the human off-target hCA I and II
T1 construct: made in house
T1 sequence (P00915 whole entry, canonical isoform): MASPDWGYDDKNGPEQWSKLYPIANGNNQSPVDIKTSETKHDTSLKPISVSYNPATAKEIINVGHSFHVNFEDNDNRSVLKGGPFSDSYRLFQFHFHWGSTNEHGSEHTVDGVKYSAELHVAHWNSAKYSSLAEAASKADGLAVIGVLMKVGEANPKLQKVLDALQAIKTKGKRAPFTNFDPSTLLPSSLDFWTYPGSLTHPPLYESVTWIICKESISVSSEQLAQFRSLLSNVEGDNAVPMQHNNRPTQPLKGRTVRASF
Experimental: (§1) The CA isoforms belong to different classes of CA enzymes characterized by different kinetic and structural features to assess isoform selectivity.
(§2) An Applied Photophysics stopped-flow instrument was used to assay CA-catalyzed CO2 hydration activity. […] The uncatalyzed rates were determined in the same manner and subtracted from the total observed rates. Stock solutions of the inhibitor (0.1 mM) were prepared in distilled–deionized water, and dilutions up to 0.01 nM were done thereafter with the assay buffer. Inhibitor and enzyme solutions were preincubated together for 15 min at room temperature prior to the assay to allow for the formation of the E–I complex. The inhibition constants were obtained by non-linear least-squares methods using PRISM 3 and the Cheng–Prusoff equation as reported earlier and represent the mean from at least three different determinations. All CA isoforms were recombinant proteins obtained in house, as reported earlier.

[2] = target: T2, hCA II (Homo sapiens, UniProt P00918); assay: stopped-flow CO2 hydrase assay, hCA II; assay type: biochemical; settings: pH 7.4, mean from 3 assays
T2 construct: made in house
Experimental: as §1, §2

[3] = target: T3, E. coli β (Escherichia coli, UniProt P61517); assay: stopped-flow CO2 hydrase assay, E. coli β; assay type: biochemical; settings: pH 8.4, mean from 3 assays
T3 construct: made in house
T3 sequence (P61517 whole entry): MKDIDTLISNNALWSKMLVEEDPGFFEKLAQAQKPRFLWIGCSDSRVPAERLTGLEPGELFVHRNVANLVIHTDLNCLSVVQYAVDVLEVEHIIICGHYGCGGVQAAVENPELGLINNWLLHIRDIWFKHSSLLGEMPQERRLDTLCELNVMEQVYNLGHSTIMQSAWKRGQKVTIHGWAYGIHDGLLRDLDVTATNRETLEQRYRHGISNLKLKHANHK
Experimental: as §1
An Applied Photophysics stopped-flow instrument was used to assay CA-catalyzed CO2 hydration activity. Phenol red (at a concentration of 0.2 mM) was used as an indicator, working at the absorbance maximum of 557 nm, with 20 mM Hepes (pH 7.4 for α-class and pH 8.4 for β- and γ-classes) as a buffer and 20 mM Na2SO4 (to maintain constant the ionic strength), following the initial rates of the CA-catalyzed CO2 hydration reaction for a period of 10–100 s. The CO2 concentrations ranged from 1.7 to 17 mM for the determination of the kinetic parameters and inhibition constants. Enzyme concentrations ranged between 5 and 12 nM. For each inhibitor, at least six traces of the initial 5–10% of the reaction were used to determine the initial velocity. The uncatalyzed rates were determined in the same manner and subtracted from the total observed rates. Stock solutions of the inhibitor (0.1 mM) were prepared in distilled–deionized water, and dilutions up to 0.01 nM were done thereafter with the assay buffer. Inhibitor and enzyme solutions were preincubated together for 15 min at room temperature prior to the assay to allow for the formation of the E–I complex. The inhibition constants were obtained by non-linear least-squares methods using PRISM 3 and the Cheng–Prusoff equation as reported earlier and represent the mean from at least three different determinations. All CA isoforms were recombinant proteins obtained in house, as reported earlier.

[4] = target: E. coli γ (Escherichia coli, UniProt P0A9W9); assay type: biochemical; settings: stopped-flow CO2 hydrase assay, pH 8.4, mean from 3 assays
Sequence of E. coli γ (P0A9W9 whole entry): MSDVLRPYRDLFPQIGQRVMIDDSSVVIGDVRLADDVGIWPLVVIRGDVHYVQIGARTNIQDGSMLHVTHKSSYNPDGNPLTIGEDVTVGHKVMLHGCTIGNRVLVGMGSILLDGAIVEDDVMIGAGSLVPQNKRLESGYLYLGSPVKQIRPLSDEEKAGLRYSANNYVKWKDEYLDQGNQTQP
Experimental: as §1, §2

[5] = target: PsCA1 (Pseudomonas aeruginosa, UniProt Q9I730); assay: biochemical; settings: stopped-flow CO2 hydrase assay, mean from 3 assays
Sequence of PsCA1 (Q9I730 entry or part of it): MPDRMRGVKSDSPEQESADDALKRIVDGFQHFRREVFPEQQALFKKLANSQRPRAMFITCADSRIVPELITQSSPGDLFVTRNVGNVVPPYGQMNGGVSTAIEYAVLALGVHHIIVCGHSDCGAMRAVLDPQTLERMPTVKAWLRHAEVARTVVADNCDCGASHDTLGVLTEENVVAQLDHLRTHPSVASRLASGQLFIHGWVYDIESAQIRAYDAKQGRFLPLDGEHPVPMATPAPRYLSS
Experimental: as §1, §2

[6] = target: T4, PsCA3 (Pseudomonas aeruginosa, UniProt Q9HVB9); assay: biochemical; settings: stopped-flow CO2 hydrase assay, mean from 3 assays
T4 construct: made in house
T4 sequence (Q9HVB9 1-215): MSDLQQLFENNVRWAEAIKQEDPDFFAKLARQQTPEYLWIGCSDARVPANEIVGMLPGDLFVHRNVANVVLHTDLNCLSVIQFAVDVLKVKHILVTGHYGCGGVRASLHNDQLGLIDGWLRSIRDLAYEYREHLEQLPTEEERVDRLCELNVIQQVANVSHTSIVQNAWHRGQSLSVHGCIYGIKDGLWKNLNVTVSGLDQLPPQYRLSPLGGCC
Experimental: as §1, §2

[7] = tested on: E. faecalis; assay: MIC and MBC test (NF EN ISO 20776-1), E. faecalis; assay type: cell-based, Enterococcus faecalis; settings: for MIC: Enterococcus faecalis; for MBC E. faecalis: bacteriostatic or bactericidal effect, tested up to 8 × MIC
Experimental: (§3) Derivatives 2a–f were dissolved in DMSO and further diluted with distilled water to the required final concentration. The microorganisms (E. faecalis, S. aureus, and S. epidermidis reported in Table 4) were cultured overnight at 35 °C in Mueller Hinton Broth 2, Cation-Adjusted (BD, BD 212322, New York, NY, USA) and adjusted to 0.5 McFarland, according to standardized guidelines NF EN ISO 20776-1 [23]. The minimal inhibitory concentration (MIC) test was performed according to the standardized guidelines NF EN ISO 20776-1 [23]. Once the MIC was obtained, the minimal bactericidal concentration (MBC) test was performed.

[8] = tested on: S. aureus; assay: MIC and MBC test (NF EN ISO 20776-1), S. aureus; assay type: cell-based, Staphylococcus aureus; settings: for MIC: Staphylococcus aureus, ATCC29213, light or radiation study; for MIC / MIC S. aureus: ATCC 29213, without irradiation; for MBC S. aureus: bacteriostatic or bactericidal effect, tested up to 8 × MIC
Experimental: as §3

[9] = tested on: S. epidermidis; assay: MIC and MBC test (NF EN ISO 20776-1), S. epidermidis; assay type: cell-based, Staphylococcus epidermidis; settings: for MIC: Staphylococcus epidermidis, ATCC14990, light or radiation study; for MIC / MIC S. epidermidis: ATCC 14990, without irradiation
Experimental: as §3

[10] = tested on: S. epidermidis; assay: photoactivity assay, irradiation with 652 nm laser; assay type: cell-based, Staphylococcus epidermidis; settings: 652 nm laser 47 min, 30 J/cm2, 2c and 2d at 64 μg/mL, others at MIC
Experimental: Upon incubation of 1.5–2 h with the products, the samples were irradiated for 47 min with a 652 nm laser (to obtain 1.70 W, 30 J/cm^2). Upon irradiation, the cells were plated and incubated overnight at 35 °C on Mueller Hinton Agar (BD, 225250, New York, NY, USA).

[11] = tested on: MRC-5 cells; assay: cytotoxicity, MTT assay; assay type: cell-based, human; settings: for IC50: MRC5, cytotoxicity, human lung fibroblasts, 24 h, MTT
Experimental: The cytotoxicity of the products was tested on MRC-5 cells (lung fibroblasts, ATCC CCL-171) with a seeding concentration of 10,000 cells/well. The products were diluted with a 2% FSC MEM medium (Sigma, M4655, Missouri, MO, USA) to concentrations ranging from 1 to 256 μg/mL and incubated with 80% confluent cells for 24 h. The following day, a 3-[4,5-dimethylthiazol-2-yl]-2,5-diphenyl tetrazolium bromide (MTT) assay was performed, and the optical density of the samples was measured at 540 nm.

[12] = tested on: human red blood cells; assay: hemolysis assay; assay type: cell-based; settings: 30 min 37 °C; for hemolysis activity, cytotoxicity to human red blood cells: 0.5–150 µg/mL, compared with 0.01% Tween 20
Experimental: Blood collected at CHU Nancy was washed three times with PBS, and 10^7 cells/mL were incubated for 30 min at 37 °C with the newly synthesized compounds. The derivatives were previously diluted to the range from 0.5 to 75/150 μg/mL with PBS. As a positive control, cells were resuspended with 0.01% polysorbate 20 (Tween 20). Tween 20 has often been used as a reference compound for cell lysis. Upon incubation, the samples were centrifuged for 5 min at 800× g, and the supernatant was collected for optical density reading at 540 nm.

[13] = light or radiation study, clinical isolate, without irradiation, read-out: MIC E. faecalis
[14] = span over the four compounds and both strains, read-out: MIC against the E. faecalis and S. aureus strains
[15] = bacteriostatic or bactericidal effect, tested up to 8 × MIC
[16] = clinical isolate, without irradiation

## CCCN1C(=CC=C2CCCC(C=CC3=[N+](CCC)c4ccccc4C3(C)C)=C2NCCc2ccc(S(N)(=O)=O)cc2)C(C)(C)c2ccccc21 [Compound 2a]
[1]
  Ki: 410 nM
[2]
  Ki: 163 nM
[3]
  Ki: 54.8 nM
[4]
  Ki: 120 nM
[5]
  Ki: 60.4 nM
[6]
  Ki: 89.4 nM
[7]; [13]
  MIC: 16 to 64 µg/mL
[7]; [14]
  MIC: 8 to 128 µg/mL
[7]
  MBC E. faecalis: bactericidal
[8]
  MIC: 8 to 32 µg/mL
  MBC S. aureus: bacteriostatic
[9]
  MIC: 4 to 16 µg/mL
[9]; Table 3
  MBC S. epidermidis: bactericidal
[9]; [15]
  MBC S. epidermidis: bactericidal
[10]
  Growth Reduction: 1 log reduction
[11]
  IC50: 38.5 µg/mL
[11]; MRC-5 IC50 compared with 2e
  fold less toxic than 2e: 19 fold
[12]
  hemolysis activity, cytotoxicity to human red blood cells: not cytotoxic

## CC1(C)C(/C=C/C2=C(NCCNC(=O)Nc3ccc(S(N)(=O)=O)cc3)C(=C/C=C3\N(CCCCS(=O)(=O)O)c4ccc5ccccc5c4C3(C)C)/CCC2)=[N+](CCCCS(=O)(=O)[O-])c2ccc3ccccc3c21 [Compound 2d]
[1]
  Ki: 923 nM
[2]
  Ki: 183 nM
[3]
  Ki: 69.8 nM
[4]
  Ki: 111 nM
[5]
  Ki: 88.7 nM
[6]
  Ki: 81 nM
[7]; [13]
  MIC: > 256 µg/mL
[7]
  MBC E. faecalis: > 256 µg/mL
[7]; [16]
  MIC E. faecalis: over 256 µg/mL
[8]
  MIC S. aureus: over 256 µg/mL
  MIC: > 256 µg/mL
  MBC S. aureus: > 256 µg/mL
[9]
  MIC S. epidermidis: over 256 µg/mL
  MIC: > 256 µg/mL
[9]; Table 3
  MBC S. epidermidis: > 256 µg/mL
[9]; [15]
  MBC S. epidermidis: > 256 µg/mL
[10]
  Growth Reduction: 1 log reduction
[11]
  IC50: > 256 µg/mL
[12]
  hemolysis activity, cytotoxicity to human red blood cells: significant cytotoxicity

## CC1(C)C(/C=C/C2=C(NCCc3ccc(S(N)(=O)=O)cc3)C(=C/C=C3\N(CCCCS(=O)(=O)O)c4ccc5ccccc5c4C3(C)C)/CCC2)=[N+](CCCCS(=O)(=O)[O-])c2ccc3ccccc3c21 [Compound 2c]
[1]
  Ki: 529 nM
[2]
  Ki: 91 nM
[3]
  Ki: 60.2 nM
[4]
  Ki: 117 nM
[5]
  Ki: 64.8 nM
[6]
  Ki: 76.8 nM
[7]; [13]
  MIC: > 256 µg/mL
[7]
  MBC E. faecalis: > 256 µg/mL
[7]; [16]
  MIC E. faecalis: over 256 µg/mL
[8]
  MIC S. aureus: over 256 µg/mL
  MIC: > 256 µg/mL
  MBC S. aureus: > 256 µg/mL
[9]
  MIC S. epidermidis: over 256 µg/mL
  MIC: > 256 µg/mL
[9]; Table 3
  MBC S. epidermidis: > 256 µg/mL
[9]; [15]
  MBC S. epidermidis: > 256 µg/mL
[10]
  Growth Reduction: 1 log reduction
[11]
  IC50: > 256 µg/mL
[12]
  hemolysis activity, cytotoxicity to human red blood cells: significant cytotoxicity

## CN1C(=CC=C2CCCC(C=CC3=[N+](C)c4ccc5ccccc5c4C3(C)C)=C2NCCNC(=O)Nc2ccc(S(N)(=O)=O)cc2)C(C)(C)c2c1ccc1ccccc21 [Compound 2f]
[1]
  selectivity for all assayed bacterial isoforms: ~10 fold
  Ki: 3900 nM
[2]
  Ki: 625 nM
[3]
  Ki: 64.9 nM
[4]
  Ki: 124 nM
[5]
  Ki: 58.3 nM
[6]
  Ki: 94.5 nM
[7]; [13]
  MIC: 32 to 128 µg/mL
[7]; [14]
  MIC: 8 to 128 µg/mL
[7]
  MBC E. faecalis: bactericidal
[8]
  MIC: 16 to 64 µg/mL
  MBC S. aureus: bacteriostatic
[9]
  MIC: 2 to 8 µg/mL
[9]; Table 3
  MBC S. epidermidis: bacteriostatic
[9]; [15]
  MBC S. epidermidis: bacteriostatic
[9]; ratio between cytotoxicity in μg/mL and the MIC value in μg/mL
  selectivity index (SI) against S. epidermidis: highest SI
[10]
  Growth Reduction: 1 log reduction
[11]
  IC50: 78.8 µg/mL
[12]
  hemolysis activity, cytotoxicity to human red blood cells: not cytotoxic

## CCCN1C(=CC=C2CCCC(C=CC3=[N+](CCC)c4ccccc4C3(C)C)=C2NCCNC(=O)Nc2ccc(S(N)(=O)=O)cc2)C(C)(C)c2ccccc21 [Compound 2b]
[1]
  selectivity for all assayed bacterial isoforms: ~10 fold
  Ki: 957 nM
[2]
  Ki: 588 nM
[3]
  Ki: 69.4 nM
[4]
  Ki: 93.5 nM
[5]
  Ki: 46.9 nM
[6]
  Ki: 48.1 nM
[7]; [13]
  MIC: 16 to 64 µg/mL
[7]; [14]
  MIC: 8 to 128 µg/mL
[7]
  MBC E. faecalis: bacteriostatic
[8]
  MIC: 8 to 32 µg/mL
  MBC S. aureus: bacteriostatic
[9]
  MIC: 4 to 16 µg/mL
[9]; Table 3
  MBC S. epidermidis: bacteriostatic
[9]; [15]
  MBC S. epidermidis: bacteriostatic
[10]
  Growth Reduction: 2 log reduction
[11]
  IC50: 82.2 µg/mL
[12]
  hemolysis activity, cytotoxicity to human red blood cells: significant cytotoxicity
[12]; hemolysis assay
  concentration above which cytotoxic to human red blood cells: > 75 µg/mL

## CN1C(=CC=C2CCCC(C=CC3=[N+](C)c4ccc5ccccc5c4C3(C)C)=C2NCCc2ccc(S(N)(=O)=O)cc2)C(C)(C)c2c1ccc1ccccc21 [Compound 2e]
[1]
  Ki: 861 nM
[2]
  Ki: 160 nM
[3]
  Ki: 74.1 nM
[4]
  Ki: 110 nM
[5]
  Ki: 71.1 nM
[6]
  Ki: 77.7 nM
[7]; [13]
  MIC: 16 to 64 µg/mL
[7]; [14]
  MIC: 8 to 128 µg/mL
[7]
  MBC E. faecalis: bactericidal
[8]
  MIC: 8 to 32 µg/mL
  MBC S. aureus: bactericidal
[9]
  MIC: 1 to 4 µg/mL
[9]; Table 3
  MBC S. epidermidis: bactericidal
[9]; [15]
  MBC S. epidermidis: bactericidal
[11]
  IC50: 2 µg/mL
[12]
  hemolysis activity, cytotoxicity to human red blood cells: not cytotoxic
